According to ChEMBL document CHEMBL4418308, “cGAS ANTAGONIST COMPOUNDS” (2017):

Assays:
Cyclic GMP-AMP synthase [1] = biological target: T1, Cyclic GMP-AMP synthase (Homo sapiens, UniProt Q8N884); test: Inhibition of CGAS in human THP1 cells transfected with mock Sendai virus and measured after 16 hrs by Gaussia luciferase reporter gene assay; type: cell-based
Cyclic GMP-AMP synthase [2] = biological target: T1, Cyclic GMP-AMP synthase; test: Inhibition of recombinant His6-SUMO tagged human CGAS expressed in Escherichia coli BL21/pLys cells incubated for 20 mins by Kinase Glo chemiluminescence assay
Cyclic GMP-AMP synthase [3] = biological target: T1, Cyclic GMP-AMP synthase; test: Inhibition of CGAS in human THP1 cells transfected with interferon stimulatory DNA and measured after 16 hrs by Gaussia luciferase reporter gene assay; type: cell-based

T1 sequence (Q8N884 whole entry): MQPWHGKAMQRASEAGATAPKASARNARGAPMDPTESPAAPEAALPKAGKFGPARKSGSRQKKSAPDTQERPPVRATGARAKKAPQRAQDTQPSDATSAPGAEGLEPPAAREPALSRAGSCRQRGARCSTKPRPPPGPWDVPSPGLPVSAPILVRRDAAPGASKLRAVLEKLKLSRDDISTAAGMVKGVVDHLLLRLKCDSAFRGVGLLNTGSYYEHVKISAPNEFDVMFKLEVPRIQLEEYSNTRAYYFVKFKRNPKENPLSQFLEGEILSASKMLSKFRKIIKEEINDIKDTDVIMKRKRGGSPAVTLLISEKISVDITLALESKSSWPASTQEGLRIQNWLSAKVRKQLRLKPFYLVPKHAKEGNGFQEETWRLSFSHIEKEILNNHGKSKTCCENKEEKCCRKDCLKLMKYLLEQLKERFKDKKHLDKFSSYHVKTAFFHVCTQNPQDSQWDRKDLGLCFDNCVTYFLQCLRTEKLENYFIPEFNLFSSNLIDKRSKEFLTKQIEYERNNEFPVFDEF

SMILES	IC50 (Cyclic GMP-AMP synthase [1])	IC50 (Cyclic GMP-AMP synthase [2])	IC50 (Cyclic GMP-AMP synthase [3])
CN1C(=O)S/C(=C\c2cc(Oc3ccc(N)nc3)c(O)cc2Br)C1=O	≥ 10 µM	≥ 10 µM	2.5 to 10 µM
CN1C(=O)S/C(=C\c2cc(OCc3ccnc4[nH]cnc34)c(O)cc2Br)C1=O	≥ 10 µM	≤ 0.5 µM	≤ 2.5 µM
CN1C(=O)S/C(=C\c2cc(O/C=C/c3cnc(N)nc3)c(O)c(F)c2Br)C1=O	≥ 10 µM	≤ 0.5 µM	≤ 2.5 µM
O=C1/C(=C/c2cc(OCc3cnc(NCc4ccccn4)nc3)c(O)c(F)c2Br)Sc2ncccc21	≥ 10 µM	≤ 0.5 µM	≥ 10 µM
O=C1/C(=C/c2cc(OCc3cncnc3)c(O)cc2Br)Sc2ncccc21	≥ 10 µM	≤ 0.5 µM	2.5 to 10 µM
CN1C(=O)S/C(=C\c2cc(OCc3ccc(N)nc3)c(O)cc2Br)C1=O	2.5 to 10 µM	≥ 10 µM	2.5 to 10 µM
CC(C)n1ccc(COc2cc(/C=C3\SC(=O)N(C)C3=O)c(Br)cc2O)cc1=O	≥ 10 µM	≥ 10 µM	2.5 to 10 µM
Nc1ncncc1COc1cc(/C=C2\Sc3ncccc3C2=O)c(Br)cc1O	≥ 10 µM	≤ 0.5 µM	2.5 to 10 µM
CNc1ncc(COc2cc(/C=C3\Sc4ncccc4C3=O)c(Br)cc2O)cn1	≥ 10 µM	≤ 0.5 µM	2.5 to 10 µM
COCCNc1ncc(COc2cc(/C=C3\Sc4ncccc4C3=O)c(Br)cc2O)cn1	≥ 10 µM	≤ 0.5 µM	2.5 to 10 µM
CC1C(=O)S/C(=C\c2cc(OC(C)c3cnc(Cl)nc3)c(O)c(F)c2Br)C1=O (stereo not given)	2.5 to 10 µM	≤ 0.5 µM	2.5 to 10 µM
CNc1ncc(COc2cc(/C=C3\SC(=O)N(C)C3=O)c(Br)cc2O)cn1	≥ 10 µM	≤ 0.5 µM	≤ 2.5 µM
CN1C(=O)S/C(=C\c2cc(OCc3cnc(NCc4cccnc4)nc3)c(O)cc2Br)C1=O	≥ 10 µM	≤ 0.5 µM	2.5 to 10 µM
CN1C(=O)S/C(=C\c2cc(OCc3cnc(N)nc3C3CC3)c(O)cc2Br)C1=O	≥ 10 µM	≤ 0.5 µM	2.5 to 10 µM
CC1C(=O)S/C(=C\c2cc(OC(C)c3cnc(N)nc3C(F)(F)F)c(O)c(F)c2Br)C1=O (stereo not given)	≥ 10 µM	≤ 0.5 µM	2.5 to 10 µM
COc1cc(/C=C2\SC(=O)N(C)C2=O)c(I)cc1O	≥ 10 µM	≤ 0.5 µM	2.5 to 10 µM
Nc1ncc(COc2cc(/C=C3\Sc4ncccc4C3=O)c(Br)cc2O)cn1	≥ 10 µM	≤ 0.5 µM	≤ 2.5 µM
CC(Oc1cc(/C=C2\SC(=O)N(C)C2=O)c(Br)c(F)c1O)C(O)c1cnc(N)nc1 (stereo not given)	≥ 10 µM	≤ 0.5 µM	≥ 10 µM
CN1C(=O)S/C(=C\c2cc(OCc3cnc(N4CCNCC4)nc3)c(O)cc2Br)C1=O	≥ 10 µM	≤ 0.5 µM	2.5 to 10 µM
COc1cc(/C=C2\SC(=O)N(C)C2=O)c(Br)c(F)c1O	≥ 10 µM	≤ 0.5 µM	2.5 to 10 µM
